Measurements from patent US9006139B2, “Active compound combinations” (Bayer Intellectual Property GmbH, priority 2009, dated 2015).
Like-named read-outs stand apart in the source and are kept apart here.

What was measured:
Assay type in all cases: in vivo
[1] = system: Sphaerotheca fuliginea; assay: Sphaerotheca test (cucumbers)/protective; conditions: Table C; for pest or weed control at 5 ppm: 5 ppm a.i.
Protocol: (§1) Solvent: 24.5 parts by weight of acetone
(§2) • 24.5 parts by weight of dimethylacetamide Emulsifier: 1 part by weight of alkylaryl polyglycol ether
To produce a suitable preparation of active compound, 1 part by weight of active compound is mixed with the stated amounts of solvent and emulsifier, and the concentrate is diluted with water to the desired concentration. To test for protect activity, young plants are sprayed with the preparation of active compound at the stated rate of application. After the spray coating has dried on, the plants are inoculated with an aqueous spore suspension of Sphaerotheca fuliginea. The plants are then placed in a greenhouse at approximately 23° C. and a relative atmospheric humidity of approximately 70%. The test is evaluated 7 days after the inoculation. 0% means an efficacy which corresponds to that of the control, while an efficacy of 100% means that no disease is observed.

[2] = system: Botrytis cinerea; assay: Botrytis test (beans)/protective; conditions: Table F
Protocol: as §1, §2
To produce a suitable preparation of active compound, 1 part by weight of active compound is mixed with the stated amounts of solvent and emulsifier, and the concentrate is diluted with water to the desired concentration. To test for protective activity, young plants are sprayed with the preparation of active compound. After the spray coating has dried on, 2 small pieces of agar covered with growth of Botrytis cinerea are placed on each leaf. The inoculated plants are placed in a darkened chamber at 20° C. and a relative atmospheric humidity of 100%. 2 days after the inoculation, the size of the lesions on the leaves is evaluated. 0% means an efficacy which corresponds to that of the control, while an efficacy of 100% means that no disease is observed.

[3] = system: Alternaria solani; assay: Alternaria test (tomatoes)/protective; conditions: Table E; for pest or weed control at 12.5 ppm: 12.5 ppm a.i.
Protocol: as §1, §2
(§3) To produce a suitable preparation of active compound, 1 part by weight of active compound is mixed with the stated amounts of solvent and emulsifier, and the concentrate is diluted with water to the desired concentration. To test for protective activity, young plants are sprayed with the preparation of active compound at the stated rate of application. After the spray coating has dried on, the plants are inoculated with an aqueous spore suspension of Alternaria solani. The plants are then placed in an incubation cabinet at approximately 20° C. and a relative atmospheric humidity of 100%. The test is evaluated 3 days after the inoculation. 0% means an efficacy which corresponds to that of the control while an efficacy of 100% means that no disease is observed.

[4] = system: Venturia inaequalis; assay: Venturia test (apples)/protective; conditions: Table D, test 1
Protocol: as §1, §2
as §3, with “conidia” for “spore”, “the causal agent of apple scab (Venturia inaequalis) and” for “Alternaria solani. The plants are”, “remain for 1 day” for “placed”, “The plants are then placed in a greenhouse at approximately 21° C. and a relative atmospheric humidity of approximately 90%. The” for “The”, “10” for “3”, “control,” for “control”

[5] = system: Phytophthora infestans; assay: whole plant or invertebrate; conditions: for Efficacy in % found: Table A
[6] = Botrytis cinerea, 48 h, test 1, 25 ppm a.i., read-out: Efficacy in % found
[7] = Podosphaera fuliginea, 168 h, test 4, read-out: Efficacy in % found
[8] = Alternaria solani, 72 h, test 1, read-out: Efficacy in % found
[9] = Botrytis cinerea, 48 h, test 2, 50 ppm a.i., read-out: Efficacy in % found

Molecule: Fc1ccc([C@]2(Cn3cncn3)O[C@H]2c2ccccc2Cl)cc1 (racemic) [(1.12), epoxiconazole]
- pest or weed control at 0.5 ppm ([1]; Podosphaera fuliginea, 168 h, test 1, 0.5 ppm a.i., read-out: Efficacy in % found): 30%
- pest or weed control at 25 ppm [2, 6]: 49%

Molecule: CC(C)(C)C(O)C(Oc1ccc(-c2ccccc2)cc1)n1cncn1 (centres unmarked) [(1.3), bitertanol]
- pest or weed control at 5 ppm [1, 7]: 71%

Molecule: CC(C1CC1)C(O)(Cn1cncn1)c1ccc(Cl)cc1 (centres unmarked) [(1.5), cyproconazole]
- pest or weed control at 0.5 ppm ([3]; Alternaria solani, 72 h, test 2, 0.5 ppm a.i., read-out: Efficacy in % found): 0%

Molecule: CC1COC(Cn2cncn2)(c2ccc(Oc3ccc(Cl)cc3)cc2Cl)O1 (centres unmarked) [(1.7), difenoconazole]
- pest or weed control at 5 ppm [1, 7]: 38%

Molecule: CC1(C(=O)Nc2ccc(O)c(Cl)c2Cl)CCCCC1 [(1.16), fenhexamid]
- Efficacy in % found ([4]; 12.5 ppm a.i.): 0%
- pest or weed control at 12.5 ppm [3, 8]: 0%

Molecule: CCCN(CC)CC1COC2(CCC(C(C)(C)C)CC2)O1 (centres unmarked) [(1.46), spiroxamine]
- pest or weed control at 100 ppm ([1]; Podosphaera fuliginea, 168 h, test 3, 100 ppm a.i., read-out: Efficacy in % found): 10%

Molecule: CC(C)(C)C(=O)C(Oc1ccc(Cl)cc1)n1cncn1 (centres unmarked) [(1.50), triadimefon]
- pest or weed control at 5 ppm [1, 7]: 19%

Molecule: Cn1cc(C(=O)Nc2ccccc2-c2ccccc2C(F)(F)F)c(C(F)(F)F)n1 [(2.26), 1-methyl-3-(trifluoromethyl)-N-[2′-(trifluoromethyl)biphenyl-2-yl]-1H-pyrazole-4-carboxamide]
- Efficacy in % found ([4]; 1 ppm a.i.): 54%
- pest or weed control at 25 ppm [2, 6]: 89%

Molecule: CO/C=C(/C(=O)OC)c1ccccc1Oc1cc(Oc2ccccc2C#N)ncn1 [(3.2), azoxystrobin]
- Efficacy in % found ([3]; test 1, 0.5 ppm a.i.): 40%
- Efficacy in % found ([2]; test 1, 25 ppm a.i.): 0%
- Efficacy in % found ([5]; test 1, 1 ppm a.i.): 23%

Molecule: CSC1=N[C@@](C)(c2ccccc2)C(=O)N1Nc1ccccc1 [(3.7), fenamidone]
- pest or weed control at 1 ppm ([5]; Phytophthora infestans, 72 h, read-out: Efficacy in % found, Table A, test 1, 1 ppm a.i.): 62%

Molecule: CCCCNC(=O)n1c(NC(=O)OC)nc2ccccc21 [(4.1), benomyl]
- pest or weed control at 2.5 ppm ([2]; Botrytis cinerea, 48 h, test 3, 2.5 ppm a.i., read-out: Efficacy in % found): 8%

Molecule: CCOc1ccc(NC(=O)OC(C)C)cc1OCC [(4.3), diethofencarb]
- pest or weed control at 50 ppm ([2]; Botrytis cinerea, 48 h, test 3, 50 ppm a.i., read-out: Efficacy in % found): 29%

Molecule: O=C(Nc1ccccc1)N(Cc1ccc(Cl)cc1)C1CCCC1 [(4.6), pencycuron]
- pest or weed control at 50 ppm [2, 9]: 0%

Molecule: COC(=O)NC(=S)Nc1ccccc1NC(=S)NC(=O)OC [(4.8), thiophanate-methyl]
- pest or weed control at 12.5 ppm ([2]; Botrytis cinerea, 48 h, test 3, 12.5 ppm a.i., read-out: Efficacy in % found): 84%
- pest or weed control at 250 ppm ([5]; Phytophthora infestans, 72 h, read-out: Efficacy in % found, Table A, test 6, 250 ppm a.i.): 29%

Molecule: O=C1C2CC=CCC2C(=O)N1SC(Cl)(Cl)Cl (centres unmarked) [(5.3), captan]
- pest or weed control at 50 ppm ([5]; Phytophthora infestans, 72 h, read-out: Efficacy in % found, Table A, test 6, 50 ppm a.i.): 60%

Molecule: N#Cc1c(Cl)c(Cl)c(Cl)c(C#N)c1Cl [(5.4), chlorothalonil]
- pest or weed control at 2.5 ppm ([5]; Phytophthora infestans, 72 h, read-out: Efficacy in % found, Table A, test 5, 2.5 ppm a.i.): 50%

Molecule: N#Cc1sc2c(=O)c3ccccc3c(=O)c=2sc1C#N [(5.6), dithianon]
- pest or weed control at 25 ppm ([5]; Phytophthora infestans, 72 h, read-out: Efficacy in % found, Table A, test 6, 25 ppm a.i.): 54%

Molecule: O=C1c2ccccc2C(=O)N1SC(Cl)(Cl)Cl [(5.9), folpet]
- pest or weed control at 50 ppm ([5]; Phytophthora infestans, 72 h, read-out: Efficacy in % found, Table A, test 3, 50 ppm a.i.): 32%

Molecule: [Cu+2].[OH-].[OH-] [(5.16), copper hydroxide]
- Efficacy in % found ([5]; test 6, 25 ppm a.i.): 43%

Molecule: Cc1cc(C)nc(Nc2ccccc2)n1 [(7.7), pyrimethanil]
- pest or weed control at 50 ppm [2, 9]: 0%

Molecule: CC(C)[C@H](NC(=O)O)C(=O)N[C@H](C)c1nc2ccc(F)cc2s1 [(9.1), benthiavalicarb]
- Efficacy in % found ([5]; test 1, 0.25 ppm a.i.): 12%

Molecule: COc1ccc(C(=CC(=O)N2CCOCC2)c2ccc(Cl)cc2)cc1OC [(9.2), dimethomorph]
- pest or weed control at 0.5 ppm ([5]; Phytophthora infestans, 72 h, read-out: Efficacy in % found, Table A, test 2, 0.5 ppm a.i.): 28%

Molecule: Cc1ccc(C(C)NC(=O)[C@@H](NC(=O)OC(C)C)C(C)C)cc1 (some centres unmarked) [(9.4), iprovalicarb]
- Efficacy in % found ([5]; test 7, 1.25 ppm a.i.): 42%

Molecule: COC(=O)CC(NC(=O)[C@@H](NC(=O)OC(C)C)C(C)C)c1ccc(Cl)cc1 (some centres unmarked) [(9.10), valifenalate]
- Efficacy in % found ([5]; test 2, 0.5 ppm a.i.): 58%

Molecule: CC(C)NC(=O)N1CC(=O)N(c2cc(Cl)cc(Cl)c2)C1=O [(10.7), iprodione]
- pest or weed control at 12.5 ppm [3, 8]: 35%
- pest or weed control at 25 ppm [2, 6]: 0%

Molecule: COC(=O)C(C)N(C(=O)Cc1ccccc1)c1c(C)cccc1C (centres unmarked) [(12.1), benalaxyl]
- pest or weed control at 1 ppm ([5]; Phytophthora infestans, 72 h, read-out: Efficacy in % found, Table A, test 4, 1 ppm a.i.): 26%

Molecule: COC(=O)[C@@H](C)N(C(=O)Cc1ccccc1)c1c(C)cccc1C [(12.2), benalaxyl-M (kiralaxyl)]
- Efficacy in % found ([5]; test 4, 1 ppm a.i.): 19%

Molecule: N#Cc1c[nH]cc1-c1cccc(Cl)c1Cl [(13.1), fenpiclonil]
- pest or weed control at 10 ppm ([2]; Botrytis cinerea, 48 h, test 2, 10 ppm a.i., read-out: Efficacy in % found): 0%

Molecule: N#Cc1c[nH]cc1-c1cccc2c1OC(F)(F)O2 [(13.2), fludioxonil]
- pest or weed control at 5 ppm ([2]; Botrytis cinerea, 48 h, test 2, 5 ppm a.i., read-out: Efficacy in % found): 84%

Molecule: Fc1ccc(Oc2ccnc3cc(Cl)cc(Cl)c23)cc1 [(13.3), quinoxyfen]
- pest or weed control at 5 ppm ([1]; Podosphaera fuliginea, 168 h, test 3, read-out: Efficacy in % found): 37%

Molecule: CCCCCCCCc1c(CC)nc2ncnn2c1N [(15.1), ametoctradin]
- Efficacy in % found ([5]; test 2, 2.5 ppm a.i.): 73%

Molecule: O=C(NCc1ncc(C(F)(F)F)cc1Cl)c1c(Cl)cccc1Cl [(15.17), fluopicolide]
- Efficacy in % found ([5]; test 1, 1 ppm a.i.): 0%

Molecule: CCO[PH](=O)O [(15.20), fosetyl-Al]
- Efficacy in % found ([5]; test 7, 62.5 ppm a.i.): 53%

Molecule: N#Cc1ccccc1NC(=O)c1snc(Cl)c1Cl [(15.22), isotianil]
- Efficacy in % found ([2]; test 2, 50 ppm a.i.): 0%

Molecule: COc1cc(C)c(C(=O)c2c(OC)ccc(Br)c2C)c(OC)c1OC [(15.25), metrafenone]
- pest or weed control at 10 ppm ([1]; Podosphaera fuliginea, 168 h, test 2, 10 ppm a.i., read-out: Efficacy in % found): 21%

Molecule: COc1ccccc1N1CCS/C1=C(/C#N)Sc1cc(C(F)(F)F)ccc1F [(15.57), flutianil]
- Efficacy in % found ([1]; test 2, 0.5 ppm a.i.): 48%

Molecule: CCCCCOC(=O)Nc1cccc(CON=C(c2ccccc2)c2nnnn2C)n1 [(15.66), pentyl {6-[({[(1-methyl-1H-tetrazol-5-yl)(phenyl)methylidene]amino}oxy)-methyl]pyridin-2-yl}carbamate]
- pest or weed control at 0.5 ppm ([5]; Phytophthora infestans, 72 h, read-out: Efficacy in % found, Table A, test 5, 0.5 ppm a.i.): 30%

Molecule: Cc1cc(C(F)(F)F)nn1CC(=O)N1CCC(c2nc(C3=NO[C@@H](c4c(F)cccc4F)C3)cs2)CC1 [(15.88), 1-(4-{4-[(5R)-5-(2,6-difluorophenyl)-4,5-dihydro-1,2-oxazol-3-yl]-1,3-thiazol-2-yl}piperidin-1-yl)-2-[5-methyl-3-(trifluoromethyl)-1H-pyrazol-1-yl]ethanone]
- pest or weed control at 0.025 ppm ([5]; Phytophthora infestans, 72 h, read-out: Efficacy in % found, Table A, test 5, 0.025 ppm a.i.): 50%

Molecule: mancozeb [(5.19)]
- Efficacy in % found ([5]; test 3, 50 ppm a.i.): 53%

Molecule: metalaxyl-M (mefenoxam) [(12.10)]
- Efficacy in % found ([5]; test 7, 1.25 ppm a.i.): 13%

Molecule: metiram [(5.21)]
- Efficacy in % found ([5]; test 3, 50 ppm a.i.): 17%

Molecule: phosphorous acid and its salts [(15.62)]
- Efficacy in % found ([5]; test 6, 500 ppm a.i.): 54%

Molecule: propineb [(5.23)]
- Efficacy in % found ([5]; test 6, 50 ppm a.i.): 26%
